Results taken from patent US11643403B2 (ILDONG PHARMACEUTICAL CO., LTD., priority 2019, dated 2023).

Assays:
[1] = molecular target: hERG (human ether-a-go-go related gene) potassium channel (Homo sapiens (Human), UniProt Q12809); assay: hERG analysis, automatic whole-cell patch clamp (QPatch 48 HT); type: cell-based; details: hERG-expressing CHO-K1 cell line, 1-100 μM, room temperature
Method: The inhibition of activity of hERG (human ether-a-go-go related gene) potassium channel by the compounds was evaluated by using an automatic whole-cell patch clamp system (QPatch 48 HT, Sophion Bioscience) that can directly measure the flow of ions through the potassium channel in cells. A CHO-K1 cell line stably expressing human hERG cDNA (Kv11.1, KCNH2) was used. The composition of the intracellular solution (mM) used for the analysis is 70 KF, 60 KCl, 15 NaCl, 5 HEPES, 5 EGTA, 5 MgATP, pH 7.3 by KOH.
The hERG-expressing CHO-K1 cell line was treated with each compound at five concentrations (1, 3, 10, 30 and 100 μM), and incubated with each test concentration for 5 minutes in duplicate. All experiments were conducted at room temperature. Change in current amplitude through the hERG channel was recorded every 8 seconds.
Stock solution for each compound is prepared in DMSO at 300× the final assay concentrations, and stored at −20° C. until the day of assay. On the day of the experiment, the stock was diluted into an extracellular solution to make final treatment concentration.
The change in hERG current before and after treatment with the test substance was recorded using the automatic whole cell patch clamp, and the hERG inhibition percentage (%) was calculated based on the control group.
In this calculation, an inhibitor dose-response curve analyzed by using a curve fitting program that uses a 4-parameter logistic dose response equation was used.

[2] = Intravenous glucose tolerance test (ivGTT) via intravenous administration, plasma insulin ELISA; type: in vivo; details: test substance 1 mg/mL/kg intravenously, maximum plasma insulin
Method: Before the intravenous glucose tolerance test (ivGTT) was performed, monkeys to be used in the test were fasted for 16 hours. After the fasting, fasting blood sugar was measured on the day of the test, and the monkeys were grouped to minimize blood sugar deviation. Each of the monkeys was fixed on a correction chair and anesthetized. A tube catheter was inserted into a saphenous vein of the monkey immediately before glucose administration (0 minute), and the test substance (1 mg/mL/kg) was administered intravenously. After the drug administration, glucose (0.25 g/kg, 50% dextrose solution 0.5 mL/kg) was intravenously administered through the tube catheter inserted into the vein. […] The separated plasma samples were stored in a frozen state until insulin analysis.
(§1) The frozen plasma samples were slowly thawed on ice. An ELISA test was performed according to a protocol provided with a Monkey insulin ELISA kit (LSBio, Cat No. LS-F10306). An insulin concentration was calculated by drawing a standard curve using the absorbance of the insulin standard and applying the absorbance of each measured sample thereto.

[3] = molecular target: GLP-1 receptor CHO-K1 cells (Homo sapiens (Human), UniProt P43220); assay: cAMP assay (HTRF, CISBIO kit); type: cell-based; details: for Emax: CHO-K1, cAMP stimulation ratio, Exendin-4 = 100%
Method: A cAMP assay test was performed according to a method optimized based on a protocol provided by a cAMP assay kit manufacturer (CISBIO). […] The cells were incubated at room temperature for 7 minutes. A cAMP-d2 conjugate reagent was prepared by mixing a cAMP conjugate with an elution buffer at a ratio of 1:4. An anti-cAMP cryptate conjugate reagent was prepared by mixing a […] with an elution buffer at a ratio of 1:4. Then, […] of the cAMP-d2 conjugate reagent was added to each of the wells. Subsequently, […] of the anti-cAMP cryptate conjugate reagent was added to each of the wells.

[4] = Intravenous glucose tolerance test (ivGTT) via oral administration, plasma insulin ELISA; type: in vivo; details: test substance 50 mg/5 mL/kg orally 60 minutes before glucose […] iv, maximum plasma insulin
Method: Before performing the ivGTT, the monkeys to be used in the test were fasted for 16 hours. After the fasting, fasting blood sugar was measured on the day of the test, and then the monkeys were grouped to minimize blood sugar deviation. On 60 minutes before glucose administration (−60 minutes), each of the monkeys was fixed on a correction chair, and the test substance (50 mg/5 mL/kg) was administered orally using a catheter for oral administration. The monkey fixed on the correction chair was anesthetized, and glucose (0.25 g/kg, 50% dextrose solution 0.5 mL/kg) was intravenously administered through a tube catheter inserted into the vein. […] The separated plasma samples were stored in a frozen state until insulin analysis.
as §1

Sequence of GLP-1 receptor CHO-K1 cells (P43220 24-463): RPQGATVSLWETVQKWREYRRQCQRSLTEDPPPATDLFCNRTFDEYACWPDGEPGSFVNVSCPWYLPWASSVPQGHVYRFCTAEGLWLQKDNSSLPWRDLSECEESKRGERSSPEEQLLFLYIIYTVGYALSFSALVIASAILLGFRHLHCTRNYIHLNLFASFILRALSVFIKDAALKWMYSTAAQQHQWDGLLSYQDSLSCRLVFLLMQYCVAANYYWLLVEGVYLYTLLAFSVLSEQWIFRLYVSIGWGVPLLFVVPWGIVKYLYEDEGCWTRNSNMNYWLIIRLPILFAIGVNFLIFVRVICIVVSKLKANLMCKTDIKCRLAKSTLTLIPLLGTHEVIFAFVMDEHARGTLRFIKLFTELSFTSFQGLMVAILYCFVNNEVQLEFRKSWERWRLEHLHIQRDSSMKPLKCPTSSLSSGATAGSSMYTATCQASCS
Sequence of hERG (human ether-a-go-go related gene) potassium channel (Q12809 whole entry): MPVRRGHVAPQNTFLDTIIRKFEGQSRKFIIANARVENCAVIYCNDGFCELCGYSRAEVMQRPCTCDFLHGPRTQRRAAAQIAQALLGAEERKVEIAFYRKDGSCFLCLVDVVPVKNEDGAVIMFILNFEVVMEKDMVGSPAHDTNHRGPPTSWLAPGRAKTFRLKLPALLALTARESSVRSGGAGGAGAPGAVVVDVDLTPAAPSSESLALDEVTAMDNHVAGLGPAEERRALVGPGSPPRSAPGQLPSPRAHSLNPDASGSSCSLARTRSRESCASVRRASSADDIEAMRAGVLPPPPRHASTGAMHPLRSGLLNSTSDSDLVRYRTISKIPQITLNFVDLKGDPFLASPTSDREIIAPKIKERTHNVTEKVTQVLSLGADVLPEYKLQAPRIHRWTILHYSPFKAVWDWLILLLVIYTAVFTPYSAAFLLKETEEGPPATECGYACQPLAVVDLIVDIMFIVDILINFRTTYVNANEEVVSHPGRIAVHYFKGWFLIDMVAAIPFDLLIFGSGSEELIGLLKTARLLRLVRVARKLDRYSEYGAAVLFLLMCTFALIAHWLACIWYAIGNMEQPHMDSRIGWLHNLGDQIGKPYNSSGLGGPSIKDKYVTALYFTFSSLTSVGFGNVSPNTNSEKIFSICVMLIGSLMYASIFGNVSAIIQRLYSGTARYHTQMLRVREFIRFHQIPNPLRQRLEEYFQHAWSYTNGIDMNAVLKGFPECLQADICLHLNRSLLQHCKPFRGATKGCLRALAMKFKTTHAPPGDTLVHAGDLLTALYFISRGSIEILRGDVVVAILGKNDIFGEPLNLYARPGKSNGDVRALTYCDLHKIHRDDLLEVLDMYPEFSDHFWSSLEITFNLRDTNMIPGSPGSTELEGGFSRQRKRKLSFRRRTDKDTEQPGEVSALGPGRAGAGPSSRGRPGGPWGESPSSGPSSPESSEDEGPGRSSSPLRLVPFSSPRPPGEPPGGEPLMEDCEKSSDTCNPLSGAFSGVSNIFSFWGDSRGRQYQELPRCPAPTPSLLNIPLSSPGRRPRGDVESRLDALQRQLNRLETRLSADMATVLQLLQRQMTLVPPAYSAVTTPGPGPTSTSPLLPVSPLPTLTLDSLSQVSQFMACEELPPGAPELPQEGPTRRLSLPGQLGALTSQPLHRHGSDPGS

In the case of `C[C@H]1CN(c2cccc(OCc3ccc(C#N)cn3)n2)CCN1Cc1nc2ccc(C(=O)O)cc2n1C[C@@H]1CCO1` [Example 1, 2-(((S)-4-(6-((5-cyanopyridin-2-yl)methoxy)pyridin-2-yl)-2-methylpiperazin-1-yl)methyl)-1-(((S)-oxetan-2-yl)methyl)-1H-benzo[d]imidazole-6-carboxylic acid], the IC50 [1] is reported as > 100000 nM, the “Monkey ivGTT (iv) insulinmax (IU/mL)” value [2] is reported as “++ (a maximum insulin concentration is greater than 250 IU/mL)” and the EC50 [3] is reported as < 50 nM. The Emax [3] was 104% and the “Monkey ivGTT (po) insulinmax” value [4] was “+ (a maximum insulin concentration is 50˜100 IU/mL)”.

For `N#Cc1ccc(COc2cccc(N3CCN(Cc4nc5ccc(C(=O)O)cc5n4C[C@@H]4CCO4)CC3)n2)nc1` [Example 2, (S)-2-((4-(6-((5-cyanopyridin-2-yl)methoxy)pyridin-2-yl)piperazin-1-yl)methyl)-1-(oxetan-2-ylmethyl)-1H-benzo [d]imidazole-6-carboxylic acid], the IC50 [1] was > 100000 nM, the EC50 [3] was < 50 nM and the Emax [3] was 108%. For the same molecule, the “Monkey ivGTT (po) insulinmax” value [4] was “++ (a maximum insulin concentration is greater than 100 IU/mL)”.

With `N#Cc1ccc(COc2cccc(N3CCN(Cc4nc5ccc(C(=O)O)nc5n4C[C@@H]4CCO4)CC3)n2)nc1` [Example 5, (S)-2-((4-(6-((5-cyanopyridin-2-yl)methoxy)pyridin-2-yl)piperazin-1-yl)methyl)-3-(oxetane-2-ylmethyl)-3H-imidazo[4,5-b]pyridine-5-carboxylic acid] the EC50 [3] was 50 to 100 nM and the Emax [3] was 111%.

In the case of `C[C@H]1CN(c2cccc(OCc3ccc(C#N)cn3)n2)CCN1Cc1nc2ccc(C(=O)O)nc2n1C[C@@H]1CCO1` [Example 6, 2-(((S)-4-(6-((5-cyanopyridin-2-yl)methoxy)pyridin-2-yl)-2-methylpiperazin-1-yl)methyl)-3-(((S)-oxetan-2-yl)methyl)-3H-imidazo[4,5-b]pyridine-5-carboxylic acid], the IC50 [1] is reported as > 100000 nM, the “Monkey ivGTT (iv) insulinmax (IU/mL)” value [2] is reported as “++ (a maximum insulin concentration is greater than 250 IU/mL)” and the “Monkey ivGTT (po) insulinmax” value [4] is reported as “+ (a maximum insulin concentration is 50˜100 IU/mL)”.

With `O=C(O)c1ccc2nc(CN3CCC(c4cccc(OCc5ncc(Cl)cc5F)c4)CC3)n(C[C@@H]3CCO3)c2c1` [Example 10, (S)-2-((4-(3-((5-chloro-3-fluoropyridin-2-yl)methoxy)phenyl)piperidin-1-yl)methyl)-1-(oxetane-2-ylmethyl)-1H-benzo[d]imidazole-6-carboxylic acid] the EC50 [3] was 50 to 100 nM and the Emax [3] was 96.4%.

For `N#Cc1ccc(COc2cccc(N3CCN(Cc4nc5ccc(C(=O)O)nc5n4C[C@@H]4CCO4)CC3)c2)nc1` [Example 13, (S)-2-((4-(3-((5-cyanopyridin-2-yl)methoxy)phenyl)piperazin-1-yl)methyl)-3-(oxetan-2-ylmethyl)-3H-imidazo[4,5-b]pyridine-5-carboxylic acid], the IC50 [1] was > 100000 nM, the “Monkey ivGTT (iv) insulinmax (IU/mL)” value [2] was “+ (a maximum insulin concentration is 200˜250 IU/mL)” and the EC50 [3] was < 50 nM. It also gave an Emax [3] of 128%.

For `N#Cc1ccc(COc2cccc(N3CCN(Cc4nc5ccc(C(=O)O)cc5n4C[C@@H]4CCO4)CC3)c2)nc1` [Example 14, (S)-2-((4-(3-((5-cyanopyridin-2-yl)methoxy)phenyl)piperazin-1-yl)methyl)-1-(oxetan-2-ylmethyl)-1H-benzo[d]imidazole-6-carboxylic acid], the IC50 [1] was > 100000 nM, the “Monkey ivGTT (iv) insulinmax (IU/mL)” value [2] was “+ (a maximum insulin concentration is 200˜250 IU/mL)” and the EC50 [3] was < 50 nM. It also gave an Emax [3] of 91.4%.

For `O=C(O)c1ccc2nc(CN3CCN(c4cccc(OCc5ncc(Cl)cc5F)n4)CC3)n(C[C@@H]3CCO3)c2c1` [Example 16, (S)-2-((4-(6-((5-chloro-3-fluoropyridin-2-yl)methoxy)pyridin-2-yl)piperazin-1-yl)methyl)-1-(oxetan-2-ylmethyl)-1H-benzo[d]imidazole-6-carboxylic acid], the IC50 [1] was > 100000 nM, the EC50 [3] was < 50 nM and the Emax [3] was 102%.

For `O=C(O)c1ccc2nc(CN3CCN(c4cccc(OCc5ccc(Cl)cn5)n4)CC3)n(C[C@@H]3CCO3)c2c1` [Example 17, (S)-2-((4-(6-((5-chloropyridin-2-yl)methoxy)pyridin-2-yl)piperazin-1-yl)methyl)-1-(oxetane-2-ylmethyl)-1H-benzo [d]imidazole-6-carboxylic acid], the IC50 [1] was > 100000 nM, the “Monkey ivGTT (iv) insulinmax (IU/mL)” value [2] was “+ (a maximum insulin concentration is 200˜250 IU/mL)” and the EC50 [3] was < 50 nM. The Emax [3] was 101%.
